Key:
[1] = target: 11-beta-hydroxysteroid dehydrogenase 1 (Rattus norvegicus, UniProt P16232); test: Inhibitory activity against rat 11beta-HSD1
[2] = target: T1, 11-beta-hydroxysteroid dehydrogenase type 2 (Rattus norvegicus, UniProt P50233); test: Inhibitory activity against rat 11beta-HSD2
T1 sequence (P50233 whole entry): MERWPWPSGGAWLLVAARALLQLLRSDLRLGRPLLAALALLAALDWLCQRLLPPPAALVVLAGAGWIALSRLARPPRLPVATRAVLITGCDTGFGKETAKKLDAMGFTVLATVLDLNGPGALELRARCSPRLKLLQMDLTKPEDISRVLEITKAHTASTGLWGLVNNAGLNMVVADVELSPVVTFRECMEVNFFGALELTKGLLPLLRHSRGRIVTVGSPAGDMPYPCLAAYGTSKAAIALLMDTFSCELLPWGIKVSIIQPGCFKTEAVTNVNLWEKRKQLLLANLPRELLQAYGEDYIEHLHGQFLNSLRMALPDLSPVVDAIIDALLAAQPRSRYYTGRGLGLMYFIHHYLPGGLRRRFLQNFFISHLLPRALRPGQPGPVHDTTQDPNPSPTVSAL

[3] = Intrinsic clearance in rat liver microsomes at 1 uM; format: ADME, Microsome
[4] = target: T2, 11-beta-hydroxysteroid dehydrogenase 1 (Homo sapiens, UniProt P28845); test: Inhibition of human 11beta-HSD1 expressed in Escherichia coli by SPA
T2 sequence (P28845 whole entry): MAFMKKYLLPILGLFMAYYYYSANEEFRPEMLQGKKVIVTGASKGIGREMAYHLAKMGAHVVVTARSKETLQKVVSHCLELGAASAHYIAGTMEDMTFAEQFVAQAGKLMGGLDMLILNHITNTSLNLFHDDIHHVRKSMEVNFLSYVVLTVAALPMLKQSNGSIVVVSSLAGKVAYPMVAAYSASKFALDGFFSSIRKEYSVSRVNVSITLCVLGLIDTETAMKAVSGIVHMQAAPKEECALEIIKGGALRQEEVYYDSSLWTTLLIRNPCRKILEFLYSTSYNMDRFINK

[5] = target: 11-beta-hydroxysteroid dehydrogenase 1 (Mus musculus, UniProt P50172); test: Inhibition of mouse 11beta-HSD1 expressed in Escherichia coli by SPA
Chain of 11-beta-hydroxysteroid dehydrogenase 1 (Mus musculus, UniProt P50172) (P50172 whole entry): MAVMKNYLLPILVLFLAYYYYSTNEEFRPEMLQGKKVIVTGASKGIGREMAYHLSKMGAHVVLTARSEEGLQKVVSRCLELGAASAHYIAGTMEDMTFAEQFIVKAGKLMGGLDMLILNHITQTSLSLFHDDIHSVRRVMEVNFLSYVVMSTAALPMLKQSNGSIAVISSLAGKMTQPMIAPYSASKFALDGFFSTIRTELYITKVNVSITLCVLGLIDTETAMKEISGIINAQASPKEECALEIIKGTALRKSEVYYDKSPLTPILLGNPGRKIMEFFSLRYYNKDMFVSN

[6] = target: T2, 11-beta-hydroxysteroid dehydrogenase 1; test: Inhibition of human 11beta-HSD1 expressed in HEK293 cells by FPIA; format: cell-based
[7] = Intrinsic clearance in human liver microsomes at 1 uM; format: ADME, Microsome
[8] = Intrinsic clearance in mouse liver microsomes at 1 uM; format: ADME, Microsome
[9] = target: T3, 11-beta-hydroxysteroid dehydrogenase type 2 (Homo sapiens, UniProt P80365); test: Inhibitory activity against human 11beta-HSD2 by SPA
T3 sequence (P80365 whole entry): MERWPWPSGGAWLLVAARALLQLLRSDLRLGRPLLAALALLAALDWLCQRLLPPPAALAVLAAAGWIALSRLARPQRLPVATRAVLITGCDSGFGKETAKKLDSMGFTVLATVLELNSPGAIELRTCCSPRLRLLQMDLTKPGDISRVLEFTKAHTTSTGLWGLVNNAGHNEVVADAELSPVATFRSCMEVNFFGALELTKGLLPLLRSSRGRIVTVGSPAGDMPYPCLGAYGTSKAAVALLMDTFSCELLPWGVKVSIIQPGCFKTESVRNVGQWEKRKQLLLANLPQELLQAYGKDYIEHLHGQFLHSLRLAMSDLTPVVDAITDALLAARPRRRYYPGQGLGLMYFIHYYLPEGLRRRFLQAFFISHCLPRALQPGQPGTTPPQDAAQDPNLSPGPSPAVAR

[10] = target: T4, 11-beta-hydroxysteroid dehydrogenase type 2 (Mus musculus, UniProt P51661); test: Inhibitory activity against mouse 11beta-HSD2 by SPA
T4 sequence (P51661 whole entry): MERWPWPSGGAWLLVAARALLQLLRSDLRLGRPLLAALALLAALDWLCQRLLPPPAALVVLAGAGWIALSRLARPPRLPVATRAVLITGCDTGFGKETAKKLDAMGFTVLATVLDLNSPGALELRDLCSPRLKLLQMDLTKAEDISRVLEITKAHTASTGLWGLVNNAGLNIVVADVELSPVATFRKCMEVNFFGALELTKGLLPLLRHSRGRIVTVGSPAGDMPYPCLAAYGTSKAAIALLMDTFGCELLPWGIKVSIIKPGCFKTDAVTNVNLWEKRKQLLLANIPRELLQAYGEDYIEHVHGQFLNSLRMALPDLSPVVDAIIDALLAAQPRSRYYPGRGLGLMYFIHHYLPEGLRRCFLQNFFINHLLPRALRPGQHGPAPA

[11] = Half life in mouse at 10 mg/kg, iv; format: ADME, organism-based; parameters: dose 10 mg/kg, route intravenous; details: in vivo
[12] = Volume of distribution in mouse at 10 mg/kg, iv; format: ADME, organism-based; parameters: dose 10 mg/kg, route intravenous; details: in vivo, read-out: Vdss
[13] = Plasma clearance in mouse at 10 mg/kg, iv; format: ADME, organism-based; parameters: dose 10 mg/kg, route intravenous
[14] = Half life in mouse at 10 mg/kg, po; format: ADME, organism-based; parameters: dose 10 mg/kg, route oral; details: in vivo
[15] = system: Mus musculus; test: AUC in mouse at 10 mg/kg, po; format: ADME, organism-based, Plasma; parameters: dose 10 mg/kg, route oral; details: in vivo
[16] = Oral bioavailability in mouse at 10 mg/kg, po; format: ADME, organism-based; details: in vivo
[17] = Half life in rat at 5 mg/kg, iv; format: ADME, organism-based; parameters: dose 5 mg/kg, route intravenous; details: in vivo
[18] = Volume of distribution in rat at 5 mg/kg, iv; format: ADME, organism-based; parameters: dose 5 mg/kg, route intravenous; details: in vivo, read-out: Vss
[19] = Plasma clearance in rat at 5 mg/kg, iv; format: ADME, organism-based; parameters: dose 5 mg/kg, route intravenous
[20] = Half life in rat at 5 mg/kg, po; format: ADME, organism-based; parameters: dose 5 mg/kg, route oral; details: in vivo
[21] = system: Rattus norvegicus; test: Area under the curve in rat at 5 mg/kg, po; format: ADME, organism-based; parameters: dose 5 mg/kg, route oral; details: in vivo
[22] = Oral bioavailability in rat at 5 mg/kg, po; format: ADME, organism-based; details: in vivo
[23] = target: 11-beta-hydroxysteroid dehydrogenase 1 (Mus musculus) (UniProt P50172); test: Inhibition of mouse 11beta-HSD1 in DIO mouse brain at 30 mg/kg, po after 1 hr; format: organism-based; parameters: dose 30 mg/kg
Chain of 11-beta-hydroxysteroid dehydrogenase 1 (Mus musculus) (P50172 whole entry, looked up): as the sequence (P50172 whole entry) above

[24] = target: 11-beta-hydroxysteroid dehydrogenase 1 (Mus musculus) (UniProt P50172); test: Inhibition of mouse 11beta-HSD1 in DIO mouse brain at 30 mg/kg, po after 7 hrs; format: organism-based; parameters: dose 30 mg/kg
[25] = target: 11-beta-hydroxysteroid dehydrogenase 1 (Mus musculus) (UniProt P50172); test: Inhibition of mouse 11beta-HSD1 in DIO mouse liver at 30 mg/kg, po after 1 hr; format: organism-based; parameters: dose 30 mg/kg
[26] = target: 11-beta-hydroxysteroid dehydrogenase 1 (Mus musculus) (UniProt P50172); test: Inhibition of mouse 11beta-HSD1 in DIO mouse liver at 30 mg/kg, po after 7 hrs; format: organism-based; parameters: dose 30 mg/kg
[27] = target: 11-beta-hydroxysteroid dehydrogenase 1 (Mus musculus) (UniProt P50172); test: Inhibition of mouse 11beta-HSD1 in DIO mouse adipose tissue at 30 mg/kg, po after 1 hr; format: organism-based; parameters: dose 30 mg/kg
[28] = target: 11-beta-hydroxysteroid dehydrogenase 1 (Mus musculus) (UniProt P50172); test: Inhibition of mouse 11beta-HSD1 in DIO mouse adipose tissue at 30 mg/kg, po after 7 hrs; format: organism-based; parameters: dose 30 mg/kg

Chain of 11-beta-hydroxysteroid dehydrogenase 1 (Rattus norvegicus, UniProt P16232) (P16232 whole entry): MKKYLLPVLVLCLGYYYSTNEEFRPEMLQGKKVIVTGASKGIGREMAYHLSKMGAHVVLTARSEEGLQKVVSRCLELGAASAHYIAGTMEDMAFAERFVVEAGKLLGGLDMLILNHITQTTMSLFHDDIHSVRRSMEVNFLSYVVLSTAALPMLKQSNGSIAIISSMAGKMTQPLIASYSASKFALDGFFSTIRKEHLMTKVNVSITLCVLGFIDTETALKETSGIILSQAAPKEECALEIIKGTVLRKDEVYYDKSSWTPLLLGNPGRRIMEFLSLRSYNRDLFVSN

Row | Ki [1] [µM] | IC50 [2] [µM] | CLint scaled at 1 µM [3] [mL/min/kg] | Ki [4] [µM] | Ki [5] [µM] | IC50 [6] [µM] | CLint scaled at 1 µM [7] [mL/min/kg] | CLint scaled at 1 µM [8] [mL/min/kg] | IC50 [9] [µM] | IC50 [10] [µM] | SMILES | further results
1 | 0.013 | > 100 | 567 | 0.004 | 0.005 | 0.021 | 33.3 | 333 | 62 | > 100 | CC(C(=O)N[C@H]1C2CC3CC1C[C@](O)(C3)C2)N1CCc2ccc3c(c2CC1)OCO3 (stereo partly drawn) | half-life [11]: 0.5 h; Vd [12]: 2.7 L/kg; clearance [13]: 155 mL/min/kg; half-life [14]: 4.2 h; AUC [15]: 0.2 ug/hr.ml; bioavailability [16]: 19%
2 |  |  |  |  |  |  | 100 | 2170 | > 100 | > 100 | CC(C)(C(=O)N[C@H]1C2CC3CC1C[C@](O)(C3)C2)N1CCN(c2ccc(C(F)(F)F)cn2)CC1 | 
3 | 0.006 | > 100 | < 50 | 0.008 | 0.034 | 0.13 | 16.7 | 683 | > 100 | > 100 | O=C(CN1CCN(c2ccc(C(F)(F)F)cn2)CC1)N[C@H]1C2CC3CC1C[C@](O)(C3)C2 | half-life [17]: 1.4 h; Vd [18]: 2.2 L/kg; clearance [19]: 23.3 mL/min/kg; half-life [20]: 1.3 h; AUC [21]: 2.4 ug/hr.ml; bioavailability [22]: 65%
4 |  |  |  | 0.032 | 0.12 | 0.55 | 33.3 | 2270 | > 20 | > 100 | O=C(CN1CCN(c2ccc(C(F)(F)F)cn2)CC1)N[C@H]1C2CC3CC1C[C@](F)(C3)C2 | 
5 |  |  |  |  | 0.018 |  | 50 | 183 |  |  | CO[C@]12CC3CC(C1)[C@@H](NC(=O)C(C)N1CCN(c4ccc(C(F)(F)F)cn4)CC1)C(C3)C2 (mixture of isomers) | 
6 |  |  |  | 0.014 | 0.053 | 0.26 | 1830 | 6330 | > 100 | > 100 | N#Cc1cccnc1N1CCN(CC(=O)NC2C3CC4CC(C3)CC2C4)CC1 (stereo not drawn) | 
7 |  |  |  |  | 4.1 |  | < 16.7 | < 100 |  |  | CC(C(=O)N[C@H]1C2C[C@@]3(O)CC1C[C@@](O)(C2)C3)N1CCN(c2ccc(C(F)(F)F)cn2)CC1 (mixture of isomers) | 
8 | 0.004 | > 100 | 83.3 | 0.005 | 0.015 | 0.029 | 50 | 117 | > 100 | > 100 | CC(C(=O)N[C@H]1C2CC3CC1C[C@](O)(C3)C2)N1CCN(c2ccc(C(F)(F)F)cn2)CC1 (mixture of isomers) | inhibition [23]: 37%; inhibition [24]: 25%; half-life [17]: 1 h; Vd [18]: 1 L/kg; clearance [19]: 33.3 mL/min/kg; half-life [20]: 1.6 h; AUC [21]: 1 ug/hr.ml; bioavailability [22]: 37%; half-life [11]: 0.4 h; Vd [12]: 1.6 L/kg; clearance [13]: 55 mL/min/kg; half-life [14]: 1 h; AUC [15]: 1.9 ug/hr.ml; bioavailability [16]: 65%; inhibition [25]: 36%; inhibition [26]: 9%; inhibition [27]: 51%; inhibition [28]: 16%
9 | 0.003 | > 100 | 467 | 0.003 | 0.002 | 0.035 | < 16.7 | 1000 | > 100 | > 100 | O=C(CN1CC[C@H](C(F)(F)F)C1)N[C@H]1C2CC3CC1C[C@](O)(C3)C2 | 
10 |  |  |  | 0.18 | 0.11 | > 10 | 217 | 5130 | > 100 | > 100 | O=C(CN1CCN(c2ccc(C(F)(F)F)cn2)CC1)NC1C2CC3CC(C2)CC1(O)C3 (racemic) | 
11 |  |  |  | 0.021 | 0.024 | 0.45 | < 16.7 | < 100 | > 100 | > 100 | C[C@@H](C(=O)N[C@H]1C2CC3CC1C[C@](O)(C3)C2)N1CC[C@@H](F)C1 | 

— ChEMBL document CHEMBL1139224, “Discovery and metabolic stabilization of potent and selective 2-amino-N-(adamant-2-yl) acetamide 11beta-hydroxysteroid dehydrogenase type 1 inhibitors” (J Med Chem, 2007)
